From patent US20250304623A1, “PEPTIDES FOR INTRACELLULAR DELIVERY” (UNIVERSIDADE DE SANTIAGO DE COMPOSTELA, priority 2022, published 2025)
*: point of attachment. NHNH2 = NN*

Experiments:
Format in all cases: cell-based
[1] = test system: ARPE19 cells expressing EGFP; experiment: EGFP-targeting siRNA delivery (GFP silencing vs siMOCK), ARPE19
Protocol: To generate an EGFP expressing HeLa cell line, HeLa cells were transfected with EGFP pDNA (pEGFP-C1, Clontech) and stable transfectants were selected with 400 μg/mL of G-418 (Millipore). Green clones were selected by epifluorescence microscopy and tested for EGFP expression stability through several passages. […] All other EGFP-expressing cell lines were obtained in a similar way from parent non-EGFP-expressing cell lines.
Cells expressing EGFP were seeded in a 96 well plate the day before the experiment at a concentration of 50,000 cell/mL (100 μL/w) in DMEM+10% FBS+1% Gln-Abt. For robotic library screening, the delivery of an EGFP-targeting siRNA (EGFP: enhanced green fluorescent protein, Ambion® Silencer® GFP Positive Control siRNA (siGFP) (AM4626)) in six different cell lines expressing EGFP was performed. […] The mixture was shaken for 30 min at room temperature (rt) before the addition to the cells. The cell medium was aspirated, and cells were washed twice with PBS. Finally, 50 μL of the solution of siRNA/amphiphile complexes were added to the cells and incubated for 4 h. After transfection, the medium was replaced by 100 μL of fresh DMEM supplemented with 10% FBS. The fluorescence knockdown was quantified after 72 h in a plate reader, by comparison with cells transfected with a non-targeting siRNA control (siMOCK, Silencer™ Negative Control No. 1 siRNA (siMOCK) (AM4611)). EGFP knockdown was compared with Lipofectamine® RNAiMAX silencing efficiency (30-60% depending on cell line, defined with a numeric value in the below tables). All experiments were done in triplicate.
(§1) Tables 1-7: RLuc (pDNA) or EGFP (mRNA) expression levels were normalized to Lipofectamine reagents (value=1) and expressed as fold-times signal increase. In the case of siRNA, the siRNA treated cells fluorescence was compared with siMOCK control fluorescence, while Cas9-RNP mediated knockout was measured against the fluorescence of untreated cells. In both siRNA and Cas9-RNP, values are expressed as % fluorescence reduction. Amphiphile concentration was 5 μM in all cases. All experiments were performed in triplicate.
Tables 20-25 show the mean (triplicates) percentage of GFP-silencing, accounted by fluorescence intensity decrease relative to a non-targeting siRNA (siMOCK) control, measured after the transfection of siRNA by different amphiphiles at different concentrations in a variety of cell lines. Background values, accounted by untreated control cells, were subtracted for processing.

[2] = test system: ARPE19 cells; experiment: EGFP mRNA delivery, robotic library screening, ARPE19
Protocol: (§2) Cells were seeded in a 96 well plate the day before the experiment at a concentration of 50,000 cell/mL (100 μL/w) in DMEM+10% FBS+1% Gln-Abt. For robotic library screening, the delivery of EGFP-mRNA (from TriLink, fully substituted with 5-methoxyuridine, capped and polyadenylated; TriLink, CleanCap® EGFP mRNA (5moU), ref. L-7201) in six different cell lines was performed. Amphiphilic molecule stock solutions were prepared in DMSO as described above and diluted in DMEM to afford a range of concentrations. The solutions of EGFP-mRNA/amphiphilic molecule complexes were freshly prepared prior to the transfection experiments. 35 μL of the corresponding amphiphile were added to 10 μL of a solution of EGFP-mRNA at 10 ng/μL in DMEM. The mixture was shaken for 30 min at room temperature before the addition to the cells. The cell medium was aspirated, and cells were washed with PBS twice. Cells were covered with 39 μL of DMEM and 11 μL of the complex's solution were added to the cells and incubated for 4 h (final concentration of peptide=2.5, 5 and 10 μM; final concentration of EGFP-mRNA=25 ng/well). After the incubation, the medium was replaced by 100 μL of fresh DMEM supplemented with 10% FBS. The total EGFP fluorescence was quantified after 72 h in a well plate reader. Amphiphile transfection efficiency was compared and normalized to Lipofectamine® MessengerMax efficiency (value of 1 in Tables 1-5 and 7; double underlined numbers). All experiments were done in triplicate.
as §1
(§3) Tables 14-19 show the mean (triplicates) fluorescence intensity measured after the transfection of EGFP mRNA by different amphiphiles at different concentrations in a variety of cell lines. Background fluorescence values, accounted by untreated control cells, were subtracted for processing.

[3] = test system: Hek293 cells; experiment: EGFP mRNA delivery, robotic library screening, Hek293
Protocol: as §2, §1, §3

[4] = test system: HCT116 cells; experiment: EGFP mRNA delivery, robotic library screening, HCT116
Protocol: as §2, §1, §3

[5] = test system: A549 cells; experiment: EGFP mRNA delivery, robotic library screening, A549
Protocol: as §2, §1, §3

## Ac-RHLK*RLK*RRLK*RL-NH2 (Ac-RHLKRLKRRLKRL-NH2; not fully specified (residues 4, 7, 11); printed as Ac-RHLK*RLK*RRLK*RL-NH2; also: linker on K* not given here) [13(Arg-His)]
[1]; Dodecanal, 5 μM
  percentage of GFP-silencing relative to siMOCK: 60%
[1]; Dodecanal, 10 μM
  percentage of GFP-silencing relative to siMOCK: 54%
[1]; Dodecanal, 15 μM
  percentage of GFP-silencing relative to siMOCK: 34%
[1]; Myristoleyl, 10 μM
  percentage of GFP-silencing relative to siMOCK: 0%
[1]; Myristoleyl, 15 μM
  percentage of GFP-silencing relative to siMOCK: 14%
[1]; Oleyl, 10 μM
  percentage of GFP-silencing relative to siMOCK: 29%
[1]; Oleyl, 15 μM
  percentage of GFP-silencing relative to siMOCK: 31%
[1]; Palmitoleyl, 5 μM
  percentage of GFP-silencing relative to siMOCK: 51%
[1]; Palmitoleyl, 10 μM
  percentage of GFP-silencing relative to siMOCK: −6%
[1]; Palmitoleyl, 15 μM
  percentage of GFP-silencing relative to siMOCK: 7%
[1]; Petroselinyl, 5 μM
  percentage of GFP-silencing relative to siMOCK: 42%
[1]; Petroselinyl, 10 μM
  percentage of GFP-silencing relative to siMOCK: 24%
[1]; Petroselinyl, 15 μM
  percentage of GFP-silencing relative to siMOCK: 26%
[2]; Petroselinyl, 5 μM
  mean fluorescence intensity (EGFP mRNA): 472
[2]; Petroselinyl, 10 μM
  mean fluorescence intensity (EGFP mRNA): 216
[3]; Myristoleyl, 2.5 μM
  mean fluorescence intensity (EGFP mRNA): 2326
[3]; Oleyl, 2.5 μM
  mean fluorescence intensity (EGFP mRNA): 5005
[3]; Oleyl, 5 μM
  mean fluorescence intensity (EGFP mRNA): 1571
[3]; Oleyl, 10 μM
  mean fluorescence intensity (EGFP mRNA): 1231
[3]; Palmitoleyl, 10 μM
  mean fluorescence intensity (EGFP mRNA): 777
[3]; Petroselinyl, 2.5 μM
  mean fluorescence intensity (EGFP mRNA): 1436
[3]; Petroselinyl, 5 μM
  mean fluorescence intensity (EGFP mRNA): 638
[3]; Petroselinyl, 10 μM
  mean fluorescence intensity (EGFP mRNA): 372
[4]; Myristoleyl, 2.5 μM
  mean fluorescence intensity (EGFP mRNA): 2974
[4]; Myristoleyl, 5 μM
  mean fluorescence intensity (EGFP mRNA): 4154
[4]; Myristoleyl, 10 μM
  mean fluorescence intensity (EGFP mRNA): 4744
[4]; Palmitoleyl, 2.5 μM
  mean fluorescence intensity (EGFP mRNA): 4249
[4]; Petroselinyl, 2.5 μM
  mean fluorescence intensity (EGFP mRNA): 1065
[4]; Petroselinyl, 5 μM
  mean fluorescence intensity (EGFP mRNA): 490
[4]; Petroselinyl, 10 μM
  mean fluorescence intensity (EGFP mRNA): 61
[5]; Dodecanal, 2.5 μM
  mean fluorescence intensity (EGFP mRNA): 626
[5]; Myristoleyl, 2.5 μM
  mean fluorescence intensity (EGFP mRNA): 392
[5]; Oleyl, 2.5 μM
  mean fluorescence intensity (EGFP mRNA): 886
[5]; Oleyl, 5 μM
  mean fluorescence intensity (EGFP mRNA): 719
[5]; Oleyl, 10 μM
  mean fluorescence intensity (EGFP mRNA): 386
[5]; Palmitoleyl, 2.5 μM
  mean fluorescence intensity (EGFP mRNA): 1177
[5]; Palmitoleyl, 5 μM
  mean fluorescence intensity (EGFP mRNA): 348
[5]; Palmitoleyl, 10 μM
  mean fluorescence intensity (EGFP mRNA): 437
[5]; Petroselinyl, 2.5 μM
  mean fluorescence intensity (EGFP mRNA): 652
[5]; Petroselinyl, 5 μM
  mean fluorescence intensity (EGFP mRNA): 306
[5]; Petroselinyl, 10 μM
  mean fluorescence intensity (EGFP mRNA): 151

## Ac-RK*LRK*K*L-NH2 (Ac-RK(NHNH2)LRK(NHNH2)K(NHNH2)L-NH2; not fully specified; printed as Ac-RK*LRK*K*L-NH2; also: K*2,K*5,K*6: native or modified lysine (ε-amide to a linker)) [Peptide 7.3]
[1]; Dodecanal, 5 μM
  percentage of GFP-silencing relative to siMOCK: 15%
[1]; Dodecanal, 10 μM
  percentage of GFP-silencing relative to siMOCK: 35%
[1]; Dodecanal, 15 μM
  percentage of GFP-silencing relative to siMOCK: 45%
[1]; Palmitoleyl, 15 μM
  percentage of GFP-silencing relative to siMOCK: −5%
[2]; Dodecanal, 2.5 μM
  mean fluorescence intensity (EGFP mRNA): 9507
[2]; Dodecanal, 5 μM
  mean fluorescence intensity (EGFP mRNA): 16576
[2]; Dodecanal, 10 μM
  mean fluorescence intensity (EGFP mRNA): 6912
[2]; Myristoleyl, 2.5 μM
  mean fluorescence intensity (EGFP mRNA): 44289
[2]; Myristoleyl, 5 μM
  mean fluorescence intensity (EGFP mRNA): 10233
[2]; Myristoleyl, 10 μM
  mean fluorescence intensity (EGFP mRNA): 2166
[2]; Oleyl, 2.5 μM
  mean fluorescence intensity (EGFP mRNA): 20910
[2]; Oleyl, 5 μM
  mean fluorescence intensity (EGFP mRNA): 4303
[2]; Palmitoleyl, 2.5 μM
  mean fluorescence intensity (EGFP mRNA): 34422
[2]; Palmitoleyl, 5 μM
  mean fluorescence intensity (EGFP mRNA): 7527
[2]; Palmitoleyl, 10 μM
  mean fluorescence intensity (EGFP mRNA): 7536
[2]; Petroselinyl, 2.5 μM
  mean fluorescence intensity (EGFP mRNA): 25416
[2]; Petroselinyl, 5 μM
  mean fluorescence intensity (EGFP mRNA): 5810
[2]; Petroselinyl, 10 μM
  mean fluorescence intensity (EGFP mRNA): 5129
[3]; Dodecanal, 2.5 μM
  mean fluorescence intensity (EGFP mRNA): 9114
[3]; Dodecanal, 5 μM
  mean fluorescence intensity (EGFP mRNA): 17096
[3]; Dodecanal, 10 μM
  mean fluorescence intensity (EGFP mRNA): 2056
[3]; Myristoleyl, 2.5 μM
  mean fluorescence intensity (EGFP mRNA): 11081
[3]; Myristoleyl, 5 μM
  mean fluorescence intensity (EGFP mRNA): 2907
[3]; Myristoleyl, 10 μM
  mean fluorescence intensity (EGFP mRNA): 982
[3]; Oleyl, 2.5 μM
  mean fluorescence intensity (EGFP mRNA): 3452
[3]; Oleyl, 5 μM
  mean fluorescence intensity (EGFP mRNA): 1414
[3]; Oleyl, 10 μM
  mean fluorescence intensity (EGFP mRNA): 805
[3]; Palmitoleyl, 2.5 μM
  mean fluorescence intensity (EGFP mRNA): 4120
[3]; Petroselinyl, 2.5 μM
  mean fluorescence intensity (EGFP mRNA): 9200
[3]; Petroselinyl, 5 μM
  mean fluorescence intensity (EGFP mRNA): 8731
[3]; Petroselinyl, 10 μM
  mean fluorescence intensity (EGFP mRNA): 476
[4]; Dodecanal, 2.5 μM
  mean fluorescence intensity (EGFP mRNA): 5668
[4]; Dodecanal, 5 μM
  mean fluorescence intensity (EGFP mRNA): 6749
[4]; Dodecanal, 10 μM
  mean fluorescence intensity (EGFP mRNA): 1139
[4]; Myristoleyl, 2.5 μM
  mean fluorescence intensity (EGFP mRNA): 35826
[4]; Myristoleyl, 5 μM
  mean fluorescence intensity (EGFP mRNA): 2060
[4]; Petroselinyl, 2.5 μM
  mean fluorescence intensity (EGFP mRNA): 6670
[4]; Petroselinyl, 5 μM
  mean fluorescence intensity (EGFP mRNA): 1464
[4]; Petroselinyl, 10 μM
  mean fluorescence intensity (EGFP mRNA): 1093
[5]; Dodecanal, 2.5 μM
  mean fluorescence intensity (EGFP mRNA): 2894
[5]; Dodecanal, 5 μM
  mean fluorescence intensity (EGFP mRNA): 4662
[5]; Dodecanal, 10 μM
  mean fluorescence intensity (EGFP mRNA): 248
[5]; Myristoleyl, 2.5 μM
  mean fluorescence intensity (EGFP mRNA): 4491
[5]; Myristoleyl, 5 μM
  mean fluorescence intensity (EGFP mRNA): 5378
[5]; Myristoleyl, 10 μM
  mean fluorescence intensity (EGFP mRNA): 228
[5]; Oleyl, 2.5 μM
  mean fluorescence intensity (EGFP mRNA): 218
[5]; Oleyl, 5 μM
  mean fluorescence intensity (EGFP mRNA): 1205
[5]; Oleyl, 10 μM
  mean fluorescence intensity (EGFP mRNA): 1046
[5]; Palmitoleyl, 2.5 μM
  mean fluorescence intensity (EGFP mRNA): 2134
[5]; Palmitoleyl, 5 μM
  mean fluorescence intensity (EGFP mRNA): 3484
[5]; Petroselinyl, 2.5 μM
  mean fluorescence intensity (EGFP mRNA): 1317
[5]; Petroselinyl, 5 μM
  mean fluorescence intensity (EGFP mRNA): 6947
[5]; Petroselinyl, 10 μM
  mean fluorescence intensity (EGFP mRNA): 641
